Measured values: patent US11753407B2, “Compounds for treating spinal muscular atrophy” (PTC Therapeutics, Inc., priority 2012, dated 2023)

Columns and labels:
[1] = tested on: Smn protein in SMA patient fibroblast cells (GM03813); test: Smn protein assay in cultured cells (SMN HTRF); assay type: cell-based, human; details: SMA patient fibroblast cells, 48 hours; for EC1.5x for Smn protein expression: 7-point concentration curve, SMN HTRF, concentration producing 1.5 times Smn protein vs DMSO vehicle control; for maximum fold (Fold) increase of Smn protein: 7-point concentration data, fold relative to vehicle control
Method in brief: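 SMA patient fibroblasts (5,000/well, DMEM-10% FBS) treated 48 h at 37° C with 7-point, 3.16-fold compound series in triplicate; lysates read by SMN HTRF (665/620 nm ratio). Fold Smn increase over DMSO vehicle derived; EC1.5× is concentration giving 1.5-fold Smn, with maximum fold also reported.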

[2] = tested on: SMN2 minigene mRNA (SMN2-A minigene) in HEK293H cells; test: SMN2 minigene mRNA splicing RT-qPCR assay in cultured cells; assay type: cell-based, human; details: Homo sapiens, HEK293-H; concentration increasing full length SMN2 mRNA 1.5-fold relative to vehicle-treated cells; HEK293H cells with SMN2-A minigene, 24 hours, 7-point concentration data; read-out: EC1.5x for production of full length SMN2 mRNA
Method in brief: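 HEK293H cells stably carrying SMN2-A minigene treated with compounds (7-point, 3.16-fold dilutions, duplicates) for 24 h at 37 °C. Full-length exon 7-containing minigene mRNA measured by multiplex RT-qPCR with GAPDH, normalized and expressed relative to vehicle (modified ΔΔCt); EC1.5× is concentration giving 1.5-fold increase.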

| melting point [°C] | Structure (SMILES) | EC1.5x for Smn protein expression [1] | maximum fold (Fold) increase of Smn protein [1] | EC (1.5-fold increase) [2] [µM] |
| --- | --- | --- | --- | --- |
| 160 to 162 | Cc1nc2ccc(-c3cc(=O)n4cc(N5CCNC(C)(C)C5)ccc4n3)cc2o1 [Compound 194, 7-(3,3-dimethylpiperazin-1-yl)-2-(2-methyl-1,3-benzoxazol-6-yl)-4H-pyrido[1,2-a]pyrimidin-4-one] | **** (an EC1.5x≤0.3 μM is indicated by four stars (****)) | ***** (a fold increase >1.65 is indicated by five stars (*****)) | < 0.1 |
| 134 to 137 | Cc1nc2ccc(-c3cc(=O)n4cc(N5CCCNCC5)ccc4n3)cc2o1 [Compound 195, 7-(1,4-diazepan-1-yl)-2-(2-methyl-1,3-benzoxazol-6-yl)-4H-pyrido[1,2-a]pyrimidin-4-one] | *** (an EC1.5× between >0.3 μM and ≤1 μM is indicated by three stars (***)) | **** (a fold increase between >1.5 and ≤1.65 is indicated by four stars (****)) | < 0.1 |
| 146 to 150 | Cc1nc2ccc(-c3cc(=O)n4cc(N5CCCN(C)CC5)ccc4n3)cc2o1 [Compound 196, 2-(2-methyl-1,3-benzoxazol-6-yl)-7-(4-methyl-1,4-diazepan-1-yl)-4H-pyrido[1,2-a]pyrimidin-4-one] | **** (an EC1.5x≤0.3 μM is indicated by four stars (****)) | **** (a fold increase between >1.5 and ≤1.65 is indicated by four stars (****)) | < 0.1 |
| 214 to 217 | Cc1nc2ccc(-c3cc(=O)n4cc(N5CCN6CCC[C@H]6C5)ccc4n3)cc2o1 [Compound 197, 7-[(8aS)-hexahydropyrrolo[1,2-a]pyrazin-2(1H)-yl]-2-(2-methyl-1,3-benzoxazol-6-yl)-4H-pyrido[1,2-a]pyrimidin-4-one] | **** (an EC1.5x≤0.3 μM is indicated by four stars (****)) | ***** (a fold increase >1.65 is indicated by five stars (*****)) | 0.1 to 0.3 |
| 194 to 199 | Cc1nc2ccc(-c3cc(=O)n4cc(N5CCN6CCC[C@@H]6C5)ccc4n3)cc2o1 [Compound 198, 7-[(8aR)-hexahydropyrrolo[1,2-a]pyrazin-2(1H)-yl]-2-(2-methyl-1,3-benzoxazol-6-yl)-4H-pyrido[1,2-a]pyrimidin-4-one] | **** (an EC1.5x≤0.3 μM is indicated by four stars (****)) | **** (a fold increase between >1.5 and ≤1.65 is indicated by four stars (****)) | < 0.1 |
| 207 to 209 | COc1cnc(-c2cc(=O)n3cc(N4CCNCC4)ccc3n2)cc1OC [Compound 199, 2-(4,5-dimethoxypyridin-2-yl)-7-(piperazin-1-yl)-4H-pyrido[1,2-a]pyrimidin-4-one] | ** (an EC1.5× between >1 μM and ≤3 μM is indicated by two stars (**)) | **** (a fold increase between >1.5 and ≤1.65 is indicated by four stars (****)) | 0.3 to 1 |
| 259 to 261 | COc1ccc(-c2cc(=O)n3cc(N4CCC(N(C)C)C4)ccc3c2)cc1F (stereo not shown) [Compound 200, 7-[3-(dimethylamino)pyrrolidin-1-yl]-2-(3-fluoro-4-methoxyphenyl)-4H-quinolizin-4-one] |  | * (A maximum fold increase of ≤1.2 is indicated by one star (*)) | 1 to 3 |
| 212 to 216 | CCN1CCN(c2ccc3nc(-c4ccc5nc(C)oc5c4)cc(=O)n3c2)CC1 [Compound 202, 7-(4-ethylpiperazin-1-yl)-2-(2-methyl-1,3-benzoxazol-6-yl)-4H-pyrido[1,2-a]pyrimidin-4-one] |  | ** (a fold increase between >1.2 and ≤1.35 is indicated by two stars (**)) | 0.3 to 1 |
| 187 to 192 | COc1ccc(-c2cc(=O)n3cc(N4CC[C@H](N(C)C)C4)ccc3n2)cc1F [Compound 205, 7-[(3S)-3-(dimethylamino)pyrrolidin-1-yl]-2-(3-fluoro-4-methoxyphenyl)-4H-pyrido[1,2-a]pyrimidin-4-one] |  | ** (a fold increase between >1.2 and ≤1.35 is indicated by two stars (**)) | 0.3 to 1 |
| 223 to 228 | COc1ccc(-c2cc(=O)n3cc(N4C[C@@H](O)[C@H](N(C)C)C4)ccc3n2)cc1F [Compound 206, 7-[(3R,4R)-3-(dimethylamino)-4-hydroxypyrrolidin-1-yl]-2-(3-fluoro-4-methoxyphenyl)-4H-pyrido[1,2-a]pyrimidin-4-one] |  | ** (a fold increase between >1.2 and ≤1.35 is indicated by two stars (**)) | 1 to 3 |
| 173 to 179 | COc1ccc(-c2cc(=O)n3cc(N4CCC(N)CC4)ccc3n2)cc1F [Compound 207, 7-(4-aminopiperidin-1-yl)-2-(3-fluoro-4-methoxyphenyl)-4H-pyrido[1,2-a]pyrimidin-4-one] |  | *** (a fold increase between >1.35 and ≤1.5 is indicated by three stars (***)) | < 0.1 |
| 167 to 171 | CNC1CCN(c2ccc3nc(-c4ccc(OC)c(F)c4)cc(=O)n3c2)CC1 [Compound 208, 2-(3-fluoro-4-methoxyphenyl)-7-[4-(methylamino)piperidin-1-yl]-4H-pyrido[1,2-a]pyrimidin-4-one] | *** (an EC1.5× between >0.3 μM and ≤1 μM is indicated by three stars (***)) | *** (a fold increase between >1.35 and ≤1.5 is indicated by three stars (***)) | < 0.1 |
| 255 to 259 | Cc1cn2cc(-c3cc(=O)n4cc(N5C[C@@H](C)N[C@@H](C)C5)ccc4n3)cc(F)c2n1 [Compound 210, 7-[(3R,5S)-3,5-dimethylpiperazin-1-yl]-2-(8-fluoro-2-methylimidazo[1,2-a]pyridin-6-yl)-4H-pyrido[1,2-a]pyrimidin-4-one] | **** (an EC1.5x≤0.3 μM is indicated by four stars (****)) | **** (a fold increase between >1.5 and ≤1.65 is indicated by four stars (****)) | < 0.1 |
| 262 to 266 | Cc1cn2cc(-c3cc(=O)n4cc(N5CCCN(C)CC5)ccc4n3)cc(F)c2n1 [Compound 211, 2-(8-fluoro-2-methylimidazo[1,2-a]pyridin-6-yl)-7-(4-methyl-1,4-diazepan-1-yl)-4H-pyrido[1,2-a]pyrimidin-4-one] | **** (an EC1.5x≤0.3 μM is indicated by four stars (****)) | **** (a fold increase between >1.5 and ≤1.65 is indicated by four stars (****)) | < 0.1 |
| 195 to 200 | COc1ccc(-c2cc(=O)n3cc(N4C[C@H]5CNC[C@H]5C4)ccc3n2)cc1F [Compound 212, 2-(3-fluoro-4-methoxyphenyl)-7-[(3aR,6aS)-hexahydropyrrolo[3,4-c]pyrrol-2(1H)-yl]-4H-pyrido[1,2-a]pyrimidin-4-one] | **** (an EC1.5x≤0.3 μM is indicated by four stars (****)) | **** (a fold increase between >1.5 and ≤1.65 is indicated by four stars (****)) | 0.1 to 0.3 |
| 204 to 210 | COc1ccc(-c2cc(=O)n3cc(N4C[C@H]5CN(C)C[C@H]5C4)ccc3n2)cc1F [Compound 213, 2-(3-fluoro-4-methoxyphenyl)-7-[(3aR,6aS)-5-methylhexahydropyrrolo[3,4-c]pyrrol-2(1H)-yl]-4H-pyrido[1,2-a]pyrimidin-4-one] | **** (an EC1.5x≤0.3 μM is indicated by four stars (****)) | *** (a fold increase between >1.35 and ≤1.5 is indicated by three stars (***)) | 0.1 to 0.3 |
| 145 to 148 | COc1ccc(-c2cc(=O)n3cc(C4CCN(CCO)CC4)ccc3n2)cc1OC [Compound 214, 2-(3,4-dimethoxyphenyl)-7-[1-(2-hydroxyethyl)piperidin-4-yl]-4H-pyrido[1,2-a]pyrimidin-4-one] | ** (an EC1.5× between >1 μM and ≤3 μM is indicated by two stars (**)) | **** (a fold increase between >1.5 and ≤1.65 is indicated by four stars (****)) | 0.3 to 1 |
| 130 to 135 | COc1cc(-c2cc(=O)n3cc(N4CCN[C@@H](C)C4)ccc3n2)ccc1F [Compound 215, 2-(4-fluoro-3-methoxyphenyl)-7-[(3S)-3-methylpiperazin-1-yl]-4H-pyrido[1,2-a]pyrimidin-4-one] |  | *** (a fold increase between >1.35 and ≤1.5 is indicated by three stars (***)) | 0.3 to 1 |

| Structure (SMILES) | melting point [°C] | EC1.5x for Smn protein expression [1] | maximum fold (Fold) increase of Smn protein [1] | EC (1.5-fold increase) [2] [µM] |
| --- | --- | --- | --- | --- |
| COc1ccc(-c2cc(=O)n3cc(C4=CCN(C)CC4)ccc3n2)cc1F [Compound 204, 2-(3-fluoro-4-methoxyphenyl)-7-(1-methyl-1,2,3,6-tetrahydropyridin-4-yl)-4H-pyrido[1,2-a]pyrimidin-4-one] | 129 to 132 | **** (an EC1.5x≤0.3 μM is indicated by four stars (****)) | **** (a fold increase between >1.5 and ≤1.65 is indicated by four stars (****)) | < 0.1 |
